Results as given in patent US20260224714A1, “CYCLING LYSOSOMAL TARGETING ANTIBODY CONJUGATES” (Lycia Therapeutics, Inc., priority 2023, published 2026).

How the values were obtained:
Assay type in all cases: cell-based
human IgE = experiment: Degradation of initial and subsequent dose of target in HepG2 cells (Example 12, Table 30); conditions: normalized to unconjugated; for Normalized Fluorescence Post Wash Median Green: after wash, probe-conjugated IgE added for 4 hours, subsequent dose of target; for Normalized Fluorescence Precomplex Median Deep Red: precomplexed equimolar conjugate:IgE (cathepsin-cleavable quenched fluorescent probe) added for 2 hours, initial dose of target
Procedure: (§1) The following experiments were performed with HepG2 hepatocellular carcinoma cells, grown in Eagle's Minimal Essential Media (EMEM) supplemented with 10% FBS and penicillin/streptomycin.
HepG2 cells (25,000) were plated in 96-well plates 48 hours before performing the experiment. On the day of the experiment, indicated conjugate was diluted in fresh EMEM as a 2× stock, and mixed with an equimolar stock of human IgE (Enzo Life Sciences, BPD-DIA-HE 1) conjugated to a cathepsin-cleavable quenched fluorescent probe. The precomplexed conjugate:IgE mixture was incubated at 37 degrees Celsius for 30 minutes. Media from HepG2 was removed, and conjugate:IgE mixture in EMEM was added to cells for 2 hours. Cells were then placed on ice to prevent trafficking/recycling during wash steps, and washed once with DPBS, once with sodium acetate buffer (20 mM, 150 mM NaCl, pH 5.2), once with Earle's Balanced Salt Solution (EBSS) adjusted to pH 2.5, and once again with DPBS, to remove conjugate from media and cell surface. Afterwards, 100 ul of prewarmed (to 37 degrees Celsius) EMEM with cathepsin-cleavable quenched fluorescent probe-conjugated IgE was added to cells for 4 hours before washing with DPBS and detaching with 0.25% Trypsin/EDTA. Cells were pelleted in 96-well conical bottom plates, washed once with FACS Buffer with BSA (Rockland Immunochemicals), resuspended FACS Buffer with BSA and median 488 and 647 intensity was analyzed by flow cytometry. Delivery of labelled IgE to the lysosome and subsequent cleavage of initial precomplexed IgE was measured by analyzing median cellular 647 intensity, while cleavage of the post wash addition of IgE, which should only be degraded by recycling conjugates which released the first round of precomplexed IgE, was analyzed by median cellular 488 intensity. HepG2 cells were treated with human IgE (Enzo Life Sciences, BPD-DIA-HE1) conjugated to a cathepsin-cleavable quenched deep red (647) fluorescent probe precomplexed to conjugate fortwo hours, then washed, and fresh media with IgE conjugated to a green (488) cathepsin-cleavable fluorescent probe was then added without conjugate. […] Fluorescence values were measured by FACS and normalized to unconjugated parent protein. Reported values are the average of the values of two replicate wells.

[1] = tested on: LysoLight-labelled human IgE; experiment: Lysosomal degradation of LysoLight-labelled IgE in HepG2 cells, live cell imaging (Example 7); conditions: equimolar conjugate:LysoLight IgE, area under the curve of deep red fluorescence over three days, normalized to unconjugated parent protein
Procedure: as §1
HepG2 cells (15,000) were plated in 96-well plates 72 hours before performing the experiment. On the day of the experiment, indicated the conjugate was diluted in fresh EMEM and mixed with an equimolar stock of LysoLight-labelled human IgE (Enzo Life Sciences, BPD-DIA-HE1), at 200 nM of each compound. The precomplexed conjugate:IgE mixture was incubated at room temperature for 30 minutes. During the precomplexing step, media from HepG2 was removed, and 40 ul of EMEM with 1/100 Fc Receptor Blocking Solution (Biolegend Human TruStain FcX, 422302) was added. Cells incubated in the receptor blocking solution for 10 minutes while making serial dilutions (1:3) of conjugate:IgE stock solution in EMEM. 40 ul of the conjugate:IgE mixture in EMEM was then added to cells (five dilutions, with final concentrations ranging from 100 nM to 1.23 nM). Cells were placed in an IncuCyte Live-Cell Analysis System (Sartorius) for long term live cell imaging analysis (10× magnification, 3 images per well). One hour after addition of compound, image acquisition to measure red fluorescence from the LysoLight probe was started, with further Images collected every hour for 72 hours. Fluorescence of the LysoLight probe only occurs when cleaved by lysosomal cathepsin proteases, confirming lysosomal delivery and degradation of target. After 72 hours, mean red fluorescence was measured for each time point, and the area under the curve of fluorescence overtime was used to measure total degradation over the 3-day time period.

[2] = tested on: Alexa Fluor647 labelled human IgE; experiment: Uptake assay: internalization of Alexa Fluor 647 labelled IgE in wild type HepG2 cells (Example 6); conditions: equimolar conjugate and AF647 IgE, 2 hours, median cellular AF647 intensity by flow cytometry, normalized to unconjugated parent protein
Procedure: as §1
(§2) HepG2 cells (25,000) were plated in 96-well plates 48 hours before the experiment was performed. On the day of the experiment, indicated the conjugate was mixed with an equimolar stock of Alexa Fluor647 labelled human IgE (Enzo Life Sciences, BPD-DIA-HE 1) in fresh EMEM as a 600 nM stock. The precomplexed conjugate:IgE mixture was incubated at room temperature for 30 minutes. During the precomplexing step, media from HepG2 was removed, and 40 ul of EMEM with 1/100 Fc Receptor Blocking Solution (Biolegend Human TruStain FcX, 422302) was added. Cells incubated in the receptor blocking solution for 10 minutes while making serial dilutions (1:3) of conjugate:IgE stock solution in EMEM. 40 ul of the conjugate:IgE mixture in EMEM was then added to cells (six dilutions, with final concentrations ranging from 300 nM to 1.23 nM) for 2 hours before washing with DPBS and detaching with 0.25% Trypsin/EDTA. Cells were pelleted in 96-well conical bottom plates, washed once with FACS Buffer with BSA (Rockland Immunochemicals), and resuspended in FACS Buffer with BSA. Uptake of fluorescently labelled IgE was measured by analyzing median cellular AF647 intensity by flow cytometry.
(§3) Cells were incubated with equimolar ratio of conjugate and AF647 IgE at indicated concentrations, with data normalized to unconjugated parent protein (Oma S35HWY57H-LC).

recombinant IgE = experiment: Degradation of super-stoichiometric levels of target in HepG2 cells (Example 13, Table 31); conditions: 1 nM conjugate and 25 nM IgE for three days, (A-B)/C IgE depleted relative to conjugate, average of two replicate wells
Procedure: as §1
For evaluation of compounds in a high throughput format, 25,000 HepG2 cells were plated in a 96-well plate. The following day, 50 ul of 1 nM conjugate and 25 nM recombinant IgE in EMEM were added to the cells. 50 ul of the initial stock of conjugate:IgE was saved to quantify for an initial time point. Three days later, the media was collected from cells, and both initial and 72 hour time points were quantified for IgE concentration using the MSD assay.
HepG2 cells were incubated in media containing 1 nM conjugate and 25 nM IgE for three days. Concentrations of IgE at beginning and end of experiment were quantified by ELISA-based assay. Molar equivalents of IgE depleted relative to conjugate added are shown, calculated as (A-B)/C, where A is the initial concentration of IgE, B is the concentration of IgE at day three, and C is the concentration of conjugate. Reported values are the average of the values of two replicate wells.

[3] = tested on: Alexa Fluor647 labelled human IgE; experiment: Uptake assay: internalization of Alexa Fluor 647 labelled IgE in ASGPR1/2 KO HepG2 cells (Example 6); conditions: equimolar conjugate and AF647 IgE, normalized to unconjugated parent protein
Procedure: as §1, §2, §3

HepG2 cells = experiment: Externalization of conjugates from a cell following internalization (cycling), high-throughput format (Example 11); conditions: 50 nM conjugate 1 hour, stringent washes, Alexa Fluor 647-labelled a-human IgG 1 hour, FACS, normalized to unconjugated parent protein, average of two replicate wells
Procedure: as §1
The method was also adapted to a high-throughput format. In this assay, 25,000 HepG2 cells were plated in 96-well plates 48 hours before performing the experiment. The day of the experiment, cells were incubated with conjugate at indicated concentrations for 1 hour. Cells were then placed on ice to prevent trafficking/recycling during wash steps, and washed once with DPBS, once with sodium acetate buffer (20 mM, 150 mM NaCl, pH 5.2), once with Earle's Balanced Salt Solution (EBSS) adjusted to pH 2.5, and once again with DPBS, to remove conjugate from media and cell surface. Afterwards, 100 ul of prewarmed (to 37° C.) EMEM with 1 μg/ml of human a-IgG antibody conjugated to Alexa Fluor647 fluorophores was added to cells for 1 hour before washing with DPBS and detaching with 0.25% Trypsin/EDTA. Cells were pelleted in 96-well conical bottom plates, washed once with FACS Buffer with BSA (Rockland Immunochemicals), resuspended FACS Buffer with BSA and median AF647 intensity was analyzed by flow cytometry. The amount of conjugate capable of cycling to the cell surface (being externalized from the cell) and binding to the Alexa Fluor647 labelled α-IgG was measured by analyzing median cellular 647 fluorescence intensity by flow cytometry. […]. Reported values are the average of the values of two replicate wells.

| SMILES | Normalized Fluorescence Post Wash Median Green (human IgE) | Normalized Fluorescence Precomplex Median Deep Red (human IgE) | Normalized Fluorescence 3.7 nM [1] | Normalized Fluorescence 100 nM [1] | Normalized Fluorescence 3.7 nM WT [2] | Normalized Fluorescence 100 nM WT [2] | Average Degradation (Molar equivalents) (recombinant IgE) | Normalized Fluorescence 100 nM ASGPR KO [3] | Normalized Fluorescence (HepG2 cells) |
| --- | --- | --- | --- | --- | --- | --- | --- | --- | --- |
| O=C(CCOCCOCCOCCNS(=O)(=O)c1ccc(N2C(=O)C=CC2=O)cc1)NC(CCCNC(=O)NCCOCCOCCCc1cncc(N[C@H]2CO[C@H](CO)[C@H](O)[C@@H]2O)n1)(CCCNC(=O)NCCOCCOCCCc1cncc(N[C@H]2CO[C@H](CO)[C@H](O)[C@@H]2O)n1)CCCNC(=O)NCCOCCOCCCc1cncc(N[C@H]2CO[C@H](CO)[C@H](O)[C@@H]2O)n1 [Compound 2303] | 3.6 | 3.4 | 10.2 | 3.7 | 70.6 | 232.7 | 3.6 | 1.1 | 52.7 |
| CC(CCCNC(=O)NCCOCCOCCOCC(F)(F)c1cncc(N[C@H]2CO[C@H](CO)[C@H](O)[C@@H]2O)n1)(CCCNC(=O)NCCOCCOCCOCC(F)(F)c1cncc(N[C@H]2CO[C@H](CO)[C@H](O)[C@@H]2O)n1)NC(=O)CCOCCOCCOCCNS(=O)(=O)c1ccc(N2C(=O)C=CC2=O)cc1 [Compound 2304] | 4.1 | 3.9 | 12.7 | 4.0 | 150.3 | 292.5 | 8.8 | 1.0 | 82.2 |
| O=C(CCOCCOCCOCCNS(=O)(=O)c1ccc(N2C(=O)C=CC2=O)cc1)NC(CCCNC(=O)NCCOCCOCCOC[C@@H]1CN([C@H]2CO[C@H](CO)[C@H](O)[C@@H]2O)C(=O)O1)(CCCNC(=O)NCCOCCOCCOC[C@@H]1CN([C@H]2CO[C@H](CO)[C@H](O)[C@@H]2O)C(=O)O1)CCCNC(=O)NCCOCCOCCOC[C@@H]1CN([C@H]2CO[C@H](CO)[C@H](O)[C@@H]2O)C(=O)O1 [Compound 2306] | 2.4 | 2.5 | 5.6 | 1.8 | 31.0 | 164.6 | 1.8 | 1.1 | 23.1 |
| CC(=O)N[C@@H]1[C@@H](O)[C@@H](O)[C@@H](CO)O[C@@H]1CCCOCCOCCNC(=O)NCCCC(CCCNC(=O)NCCOCCOCCC[C@H]1O[C@H](CO)[C@H](O)[C@H](O)[C@H]1NC(C)=O)(CCCNC(=O)NCCOCCOCCC[C@H]1O[C@H](CO)[C@H](O)[C@H](O)[C@H]1NC(C)=O)NC(=O)COCCOCCOCCOCCN(C(=O)CBr)C1CCOCC1 [Compound 2307, N-[4-[2-[2-[3-[(2R,3R,4R,5R,6R)-3-acetamido-4,5-dihydroxy-6-(hydroxymethyl)tetrahydropyran-2-yl]propoxy]ethoxy]ethylcarbamoylamino]-1,1-bis[3-[2-[2-[3-[(2R,3R,4R,5R,6R)-3-acetamido-4,5-dihydroxy-6-(hydroxymethyl)tetrahydropyran-2-yl]propoxy]ethoxy]ethylcarbamoylamino]propyl]butyl]-2-[2-[2-[2-[2-[(2-bromoacetyl)-tetrahydropyran-4-yl-amino]ethoxy]ethoxy]ethoxy]ethoxy]acetamide] | 3.5 | 3.7 | 7.9 | 4.1 | 81.6 | 253.2 | 5.6 | 1.2 | 42.9 |
| CC(=O)N[C@@H]1[C@@H](O)[C@@H](O)[C@@H](CO)O[C@@H]1CCCOCCOCCNC(=O)NCCCC(CCCNC(=O)NCCOCCOCCC[C@H]1O[C@H](CO)[C@H](O)[C@H](O)[C@H]1NC(C)=O)(CCCNC(=O)NCCOCCOCCC[C@H]1O[C@H](CO)[C@H](O)[C@H](O)[C@H]1NC(C)=O)NC(=O)CBr [Compound 2308] | 2.8 | 3.3 | 6.7 | 2.3 | 55.1 | 261.4 | 2.5 | 1.1 | 31.6 |
